Experimental data from ChEMBL document CHEMBL4706768, “Discovery of Potent, Selective Triazolothiadiazole-Containing c-Met Inhibitors” (ACS Med Chem Lett, 2021).

Assays:
[1] = biological target: Hepatocyte growth factor receptor (Homo sapiens, UniProt P08581); assay: Inhibition of c-Met (unknown origin) using poly Glu-Tyr as substrate preincubated for 10 mins followed by ATP addition by phosphoenolpyruvate/pyruvate kinase/lactate dehydrogenase coupled radiometric assay
[2] = biological target: Receptor-type tyrosine-protein kinase FLT3 (Homo sapiens, UniProt P36888); assay: Inhibition of FLT3 (unknown origin)
[3] = biological target: Tyrosine-protein kinase JAK2 (Homo sapiens, UniProt O60674); assay: Inhibition of JAK2 (unknown origin)
[4] = Inhibition of PI3K (unknown origin); parameters: species or system Homo sapiens
[5] = biological target: Tyrosine-protein kinase ABL1 (Homo sapiens) (UniProt P00519); assay: Inhibition of recombinant N-terminal His6-tagged human ABL (27 to end residues) expressed in baculovirus infected Sf21 insect cells at 2 uM using Abltide as substrate relative to control
[6] = biological target: ALK tyrosine kinase receptor (Homo sapiens) (UniProt Q9UM73); assay: Inhibition of recombinant N-terminal His6-tagged human ALK (1058 to end residues) expressed in baculovirus infected Sf21 insect cells at 2 uM using IGF-1Rtide as substrate relative to control
[7] = biological target: Tyrosine-protein kinase receptor UFO (Homo sapiens) (UniProt P30530); assay: Inhibition of recombinant N-terminal His6-tagged human AXL (473 to end residues) expressed in Sf21 insect cells at 2 uM using Axl-tide as substrate relative to control
[8] = biological target: Serine/threonine-protein kinase Chk1 (Homo sapiens) (UniProt O14757); assay: Inhibition of recombinant human N-terminal GST-tagged full-length CHK1 expressed in Sf21 insect cells at 2 uM using CHKtide as substrate relative to control
[9] = organism: Homo sapiens; assay: Inhibition of CK1 (unknown origin) at 2 uM relative to control
[10] = biological target: Calcium/calmodulin-dependent protein kinase type II subunit beta (Homo sapiens) (UniProt Q13554); assay: Inhibition of recombinant human N-terminal His6-tagged CAMK2beta (1 to 315 residues) expressed in baculovirus infected Sf21 insect cells at 2 uM using ZIPtide as substrate relative to control
[11] = biological target: Tyrosine-protein kinase Fyn (Homo sapiens) (UniProt P06241); assay: Inhibition of recombinant human N-terminal His6-tagged full-length FYN expressed in baculovirus infected Sf21 insect cells at 2 uM using Src peptide as substrate relative to control
[12] = biological target: Insulin receptor-related protein (Homo sapiens) (UniProt P14616); assay: Inhibition of recombinant human N-terminal His6-tagged IRR (944 to 1266 residues) expressed in baculovirus infected Sf21 insect cells at 2 uM using MBP (13-104) as substrate relative to control
[13] = biological target: Serine/threonine-protein kinase mTOR (Homo sapiens) (UniProt P42345); assay: Inhibition of recombinant human N-terminal FLAG-tagged mTOR (1362 to end residues) at 2 uM relative to control
[14] = biological target: Tyrosine-protein kinase Lyn (Homo sapiens) (UniProt P07948); assay: Inhibition of recombinant human N-terminal His6-tagged full-length LYN expressed in Sf21 insect cells at 2 uM using Poly (Glu4-Tyr) (4:1) as substrate relative to control
[15] = biological target: Dual specificity mitogen-activated protein kinase kinase 6 (Homo sapiens) (UniProt P52564); assay: Inhibition of recombinant human N-terminal MBP-tagged MKK6 (4 to end residues) expressed in Escherichia coli at 2 uM using p38alpha/SAPK2a.as substrate relative to control
[16] = biological target: Dual specificity mitogen-activated protein kinase kinase 7 (Homo sapiens) (UniProt O14733); assay: Inhibition of recombinant human N-terminal GST-tagged MKK7beta1 (2 to end residues) expressed in Escherichia coli at 2 uM using JNK1alpha1/SAPK1c as substrate relative to control
[17] = biological target: Serine/threonine-protein kinase 3 (Homo sapiens) (UniProt Q13188); assay: Inhibition of recombinant human N-terminal His6-tagged MST2 (2 to end residues) expressed in baculovirus infected Sf21 insect cells at 2 uM using MBP as substrate relative to control
[18] = biological target: Mitogen-activated protein kinase 11 (Homo sapiens) (UniProt Q15759); assay: Inhibition of recombinant human N-terminal GST-tagged full-length p38beta2 expressed in Escherichia coli at 2 uM using MBP as substrate relative to control
[19] = biological target: Serine/threonine-protein kinase PAK 2 (Homo sapiens) (UniProt Q13177); assay: Inhibition of recombinant human N-terminal/C-terminal His6-tagged full-length PAK2 (3 to end residues) expressed in Escherichia coli at 2 uM using long S6 Kinase peptide as substrate relative to control
[20] = biological target: Platelet-derived growth factor receptor alpha (Homo sapiens) (UniProt P16234); assay: Inhibition of recombinant human N-terminal His6-tagged PDGFRalpha (550 to end residues) expressed in baculovirus infected Sf21 insect cells at 2 uM using poly (Glu4-Tyr) (4:1) as substrate relative to control
[21] = biological target: Protein kinase C beta type (Homo sapiens) (UniProt P05771); assay: Inhibition of recombinant human N-terminal His6-tagged PKCbeta2 (2 to end residues) expressed in Sf21 insect cells at 2 uM using Histone H1 as substrate relative to control
[22] = biological target: Protein kinase C theta type (Homo sapiens) (UniProt Q04759); assay: Inhibition of recombinant human full-length C-terminal His6-tagged PKCtheta expressed in Sf21 insect cells at 2 uM using Histone H1 as substrate relative to control
[23] = test system: RAF proto-oncogene serine/threonine-protein kinase (Homo sapiens), P04049 [Y340D,Y341D]; assay: Inhibition of recombinant human N-terminal GST-tagged c-RAF Y340D/Y341D mutant (306 to 648 residues) expressed in Sf9 insect cells at 2 uM using MEK1(K97R) as substrate relative to control
[24] = biological target: Receptor-interacting serine/threonine-protein kinase 2 (Homo sapiens) (UniProt O43353); assay: Inhibition of recombinant human N-terminal His6-tagged RIPK2 (1 to 299 residues) expressed in baculovirus infected Sf21 insect cells at 2 uM using MBP as substrate relative to control
[25] = biological target: Rho-associated protein kinase 2 (Homo sapiens) (UniProt O75116); assay: Inhibition of recombinant human N-terminal GST-tagged ROCK2 (5 to 554 residues) expressed in baculovirus infected Spodoptera frugiperda insect cells at 2 uM using KRRRLASLR as substrate relative to control
[26] = biological target: Angiopoietin-1 receptor (Homo sapiens) (UniProt Q02763); assay: Inhibition of recombinant human N-terminal His6-tagged TIE2 (771 to end residues) expressed in baculovirus infected Sf21 insect cells at 2 uM using poly (Glu4-Tyr) (4:1) as substrate relative to control
[27] = biological target: High affinity nerve growth factor receptor (Homo sapiens) (UniProt P04629); assay: Inhibition of recombinant human N-terminal His6-tagged TRKA (440 to end residues) expressed in baculovirus infected Sf21 insect cells at 2 uM using KKKSPGEYVNIEFG as substrate relative to control
[28] = Unbound intrinsic clearance in mouse hepatocytes assessed per million cells; assay type: ADME, cell-based, Hepatocyte

Sequence of Protein kinase C beta type (Homo sapiens) (P05771 2-671 limits assumed): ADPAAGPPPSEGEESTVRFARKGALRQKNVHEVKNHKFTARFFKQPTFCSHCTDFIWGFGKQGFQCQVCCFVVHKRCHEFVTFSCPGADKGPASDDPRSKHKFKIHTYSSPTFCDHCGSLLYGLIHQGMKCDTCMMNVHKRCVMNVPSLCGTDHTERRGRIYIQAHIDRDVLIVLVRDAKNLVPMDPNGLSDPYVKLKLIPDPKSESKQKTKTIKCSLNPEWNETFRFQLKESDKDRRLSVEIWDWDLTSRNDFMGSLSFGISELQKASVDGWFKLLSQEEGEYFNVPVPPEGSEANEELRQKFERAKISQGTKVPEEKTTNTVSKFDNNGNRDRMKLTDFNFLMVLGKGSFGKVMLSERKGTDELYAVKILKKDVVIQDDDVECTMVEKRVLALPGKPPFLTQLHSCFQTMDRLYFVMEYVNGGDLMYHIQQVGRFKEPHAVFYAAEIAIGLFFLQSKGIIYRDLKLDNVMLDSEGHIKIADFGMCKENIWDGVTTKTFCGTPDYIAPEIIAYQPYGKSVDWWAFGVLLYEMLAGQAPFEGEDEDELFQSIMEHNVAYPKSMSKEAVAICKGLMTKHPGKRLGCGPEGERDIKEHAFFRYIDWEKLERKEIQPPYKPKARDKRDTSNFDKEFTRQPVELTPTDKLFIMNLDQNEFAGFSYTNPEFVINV
Sequence of Tyrosine-protein kinase JAK2 (O60674 whole entry): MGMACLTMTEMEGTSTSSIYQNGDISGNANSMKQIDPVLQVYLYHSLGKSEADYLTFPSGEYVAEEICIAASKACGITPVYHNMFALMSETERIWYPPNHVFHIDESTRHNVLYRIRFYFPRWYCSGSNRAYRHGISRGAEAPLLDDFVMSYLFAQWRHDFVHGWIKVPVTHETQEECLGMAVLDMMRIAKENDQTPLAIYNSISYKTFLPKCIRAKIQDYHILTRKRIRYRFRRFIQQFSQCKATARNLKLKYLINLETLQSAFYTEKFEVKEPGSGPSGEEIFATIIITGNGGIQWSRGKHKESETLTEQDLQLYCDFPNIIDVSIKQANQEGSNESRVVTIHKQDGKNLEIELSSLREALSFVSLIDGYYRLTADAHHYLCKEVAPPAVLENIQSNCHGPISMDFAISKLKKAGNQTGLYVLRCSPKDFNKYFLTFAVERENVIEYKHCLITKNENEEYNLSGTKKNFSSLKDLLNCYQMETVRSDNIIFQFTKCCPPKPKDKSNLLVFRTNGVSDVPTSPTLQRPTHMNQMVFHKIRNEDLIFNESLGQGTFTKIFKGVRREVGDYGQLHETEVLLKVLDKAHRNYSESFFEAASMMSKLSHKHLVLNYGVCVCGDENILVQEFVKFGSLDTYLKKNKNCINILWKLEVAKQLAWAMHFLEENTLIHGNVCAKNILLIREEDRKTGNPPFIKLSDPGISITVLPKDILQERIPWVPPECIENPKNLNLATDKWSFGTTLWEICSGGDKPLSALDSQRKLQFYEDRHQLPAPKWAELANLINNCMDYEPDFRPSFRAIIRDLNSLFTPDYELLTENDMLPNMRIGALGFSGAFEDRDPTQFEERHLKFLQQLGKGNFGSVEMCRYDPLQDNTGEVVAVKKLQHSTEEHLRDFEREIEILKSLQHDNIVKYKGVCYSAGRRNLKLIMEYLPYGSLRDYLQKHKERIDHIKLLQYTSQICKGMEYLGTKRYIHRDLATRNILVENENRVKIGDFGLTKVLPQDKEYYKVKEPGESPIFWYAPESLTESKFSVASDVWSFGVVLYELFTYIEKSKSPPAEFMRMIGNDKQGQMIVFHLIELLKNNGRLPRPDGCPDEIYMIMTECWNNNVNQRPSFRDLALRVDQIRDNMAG
Sequence of Insulin receptor-related protein (Homo sapiens) (P14616 27-742 limits assumed): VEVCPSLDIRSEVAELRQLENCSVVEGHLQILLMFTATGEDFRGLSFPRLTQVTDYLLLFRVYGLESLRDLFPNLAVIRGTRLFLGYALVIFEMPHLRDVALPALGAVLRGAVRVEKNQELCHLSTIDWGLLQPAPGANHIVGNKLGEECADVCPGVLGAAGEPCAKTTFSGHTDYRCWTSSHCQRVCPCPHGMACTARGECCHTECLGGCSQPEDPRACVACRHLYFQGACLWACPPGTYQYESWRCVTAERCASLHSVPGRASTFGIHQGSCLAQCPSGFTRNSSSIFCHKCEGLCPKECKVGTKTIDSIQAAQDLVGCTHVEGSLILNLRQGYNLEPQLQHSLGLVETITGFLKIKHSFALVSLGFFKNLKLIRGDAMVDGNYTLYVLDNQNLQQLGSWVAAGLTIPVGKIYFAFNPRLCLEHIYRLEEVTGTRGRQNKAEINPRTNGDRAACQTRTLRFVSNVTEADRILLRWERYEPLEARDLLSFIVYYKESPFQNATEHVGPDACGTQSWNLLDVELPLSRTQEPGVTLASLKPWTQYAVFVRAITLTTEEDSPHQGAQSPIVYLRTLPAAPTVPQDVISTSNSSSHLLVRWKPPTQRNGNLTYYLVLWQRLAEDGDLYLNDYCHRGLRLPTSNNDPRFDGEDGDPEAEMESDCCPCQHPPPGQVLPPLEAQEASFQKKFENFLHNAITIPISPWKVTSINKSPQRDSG
Sequence of Insulin receptor-related protein (Homo sapiens) (P14616 747-1297 limits assumed): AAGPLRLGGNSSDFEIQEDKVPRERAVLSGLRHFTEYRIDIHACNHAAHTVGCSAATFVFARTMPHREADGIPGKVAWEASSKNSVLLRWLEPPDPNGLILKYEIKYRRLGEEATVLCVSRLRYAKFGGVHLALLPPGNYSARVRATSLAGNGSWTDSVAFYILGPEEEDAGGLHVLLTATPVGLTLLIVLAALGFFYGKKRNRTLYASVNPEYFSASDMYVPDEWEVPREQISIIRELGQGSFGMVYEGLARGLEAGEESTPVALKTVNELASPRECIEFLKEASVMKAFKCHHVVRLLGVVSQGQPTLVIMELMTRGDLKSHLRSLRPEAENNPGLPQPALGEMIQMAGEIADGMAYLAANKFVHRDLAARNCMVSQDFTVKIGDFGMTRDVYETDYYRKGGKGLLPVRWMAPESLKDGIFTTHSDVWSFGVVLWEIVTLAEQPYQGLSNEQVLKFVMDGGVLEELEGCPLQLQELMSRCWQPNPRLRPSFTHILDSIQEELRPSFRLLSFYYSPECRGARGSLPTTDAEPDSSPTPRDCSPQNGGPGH
Sequence of Serine/threonine-protein kinase 3 (Homo sapiens) (Q13188 whole entry): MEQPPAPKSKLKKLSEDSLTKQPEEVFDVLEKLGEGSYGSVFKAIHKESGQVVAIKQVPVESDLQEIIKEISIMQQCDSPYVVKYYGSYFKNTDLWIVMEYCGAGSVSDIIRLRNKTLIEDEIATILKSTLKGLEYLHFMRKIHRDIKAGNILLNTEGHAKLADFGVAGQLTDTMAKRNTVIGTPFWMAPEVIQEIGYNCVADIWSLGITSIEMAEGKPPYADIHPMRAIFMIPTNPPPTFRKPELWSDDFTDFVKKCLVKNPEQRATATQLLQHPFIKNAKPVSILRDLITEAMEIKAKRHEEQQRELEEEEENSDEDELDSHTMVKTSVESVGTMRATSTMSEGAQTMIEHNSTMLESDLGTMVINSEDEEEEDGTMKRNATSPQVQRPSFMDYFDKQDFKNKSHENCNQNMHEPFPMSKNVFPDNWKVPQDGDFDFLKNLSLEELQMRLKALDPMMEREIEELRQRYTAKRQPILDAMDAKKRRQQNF
Sequence of Calcium/calmodulin-dependent protein kinase type II subunit beta (Homo sapiens) (Q13554 whole entry, the tested form may be a part): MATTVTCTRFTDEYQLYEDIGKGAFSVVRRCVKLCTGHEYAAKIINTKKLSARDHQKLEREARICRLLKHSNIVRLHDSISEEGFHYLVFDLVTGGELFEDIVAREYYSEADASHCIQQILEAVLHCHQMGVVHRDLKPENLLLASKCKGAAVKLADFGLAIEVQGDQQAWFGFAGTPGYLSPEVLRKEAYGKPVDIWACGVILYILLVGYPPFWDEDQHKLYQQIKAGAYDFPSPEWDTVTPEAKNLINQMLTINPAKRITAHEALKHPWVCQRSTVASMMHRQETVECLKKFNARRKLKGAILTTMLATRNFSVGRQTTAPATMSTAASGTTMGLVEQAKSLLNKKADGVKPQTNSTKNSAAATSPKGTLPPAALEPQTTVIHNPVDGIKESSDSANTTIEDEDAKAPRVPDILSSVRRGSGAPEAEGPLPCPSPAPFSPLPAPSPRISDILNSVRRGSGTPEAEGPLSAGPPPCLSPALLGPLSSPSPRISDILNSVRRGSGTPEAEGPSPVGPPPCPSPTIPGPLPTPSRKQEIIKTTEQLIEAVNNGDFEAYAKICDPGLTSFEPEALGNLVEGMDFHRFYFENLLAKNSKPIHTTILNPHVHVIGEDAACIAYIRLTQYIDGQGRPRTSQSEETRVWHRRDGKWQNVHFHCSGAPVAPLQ
Sequence of Protein kinase C theta type (Homo sapiens) (Q04759 whole entry, looked up, the tested form may be a part): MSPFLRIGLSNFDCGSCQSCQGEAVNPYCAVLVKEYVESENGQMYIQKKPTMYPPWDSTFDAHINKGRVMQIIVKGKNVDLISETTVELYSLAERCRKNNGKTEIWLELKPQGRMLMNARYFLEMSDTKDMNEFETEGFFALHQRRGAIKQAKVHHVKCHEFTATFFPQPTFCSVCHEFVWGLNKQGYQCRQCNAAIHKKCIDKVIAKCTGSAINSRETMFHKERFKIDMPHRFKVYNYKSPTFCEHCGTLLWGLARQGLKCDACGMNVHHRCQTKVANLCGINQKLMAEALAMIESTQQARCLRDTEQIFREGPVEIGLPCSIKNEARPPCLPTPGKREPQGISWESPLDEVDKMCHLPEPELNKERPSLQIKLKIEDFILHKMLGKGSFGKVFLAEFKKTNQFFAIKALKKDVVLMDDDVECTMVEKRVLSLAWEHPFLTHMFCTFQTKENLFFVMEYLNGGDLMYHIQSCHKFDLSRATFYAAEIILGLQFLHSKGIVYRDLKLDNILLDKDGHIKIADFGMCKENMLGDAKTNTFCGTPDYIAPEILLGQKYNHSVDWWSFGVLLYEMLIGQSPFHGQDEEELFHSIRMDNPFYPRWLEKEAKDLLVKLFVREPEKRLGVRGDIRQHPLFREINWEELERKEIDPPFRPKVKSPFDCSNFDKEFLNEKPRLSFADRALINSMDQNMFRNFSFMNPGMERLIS

## C[C@@H](c1ccc2ncccc2c1)c1nnc2sc(-c3cnn(C)c3)nn12
[1]
  Ki: 0.02 µM
[2]
  Ki: > 4 µM
[3]
  Ki: > 4 µM
[4]
  Ki: > 4 µM
[5]
  inhibition: < 50%
[6]
  inhibition: < 50%
[7]
  inhibition: < 50%
[8]
  inhibition: < 50%
[9]
  inhibition: < 50%
[10]
  inhibition: < 50%
[11]
  inhibition: < 50%
[12]
  inhibition: < 50%
[13]
  inhibition: < 50%
[14]
  inhibition: < 50%
[15]
  inhibition: < 50%
[16]
  inhibition: < 50%
[17]
  inhibition: < 50%
[18]
  inhibition: < 50%
[19]
  inhibition: < 50%
[20]
  inhibition: < 50%
[21]
  inhibition: < 50%
[22]
  inhibition: < 50%
[23]
  inhibition: < 50%
[24]
  inhibition: < 50%
[25]
  inhibition: < 50%
[26]
  inhibition: < 50%
[27]
  inhibition: < 50%
[28]
  CL free: 7.2 µL/min
